Columns and labels:
[1] = system: rat heart (myocardium), normal and occlusion/reperfusion; assay: Imaging of rat hearts using a small animal PET scanner; format: in vivo, female Wistar rats
Experimental: For the PET measurements, a microPET FOCUS 120 small animal scanner (Siemens Medical Solutions USA, Inc.) was used. Imaging was done on 4 female Wistar rats (200-250 g) (see Tab. 1). […] After 5 min, the occlusion was removed and dynamic PET images of the animals were taken for 4 h and 2 h. Two rats were used as controls without occlusion (rest). The first rat was injected with 20.2 MBq Rb-81 and the second rat with 69.3 MBq Rb-81, in 500 μl isotonic saline. Following injection, dynamic PET images of the animals were taken for 4 h (S1#1 und S1#2) and 2 h (S2#3 and S2#4). The Rb-81 solution was injected intravenously in the lateral tail vein of all animals. For occlusion, a 7-0 polypropylene suture on a small curved needle was passed through the left coronary artery (LCA), and ligated to occlude the LCA. After tracer injection, reperfusion was obtained by cutting the suture. LCA occlusion and reperfusion were confirmed by the color change of myocardial surface. […]
After PET imaging, all animals were sacrificed by carbon dioxide inhalation and the organs of interest (see above) were dissected, weighed and measured for activity using a well-type g-counter. […] All data are expressed as percent of the injected dose per gram tissue (% ID/g, mean±SD). […]

[2] = system: occlusion/reperfusion rat heart model; assay: Ex vivo dual tracer autoradiography, Tl-201 and Rb-81 redistribution kinetics; format: in vivo, rats; conditions: for activity in occluded areas, percent of the uptake in normal tissues: 20 μm heart slices, phosphor-imager ROIs
Experimental: Three additional rats were simultaneously injected with 20 MBq Rb-81 and 2.7 MBq Tl-201. After the occlusion/injection/reperfusion procedure was completed (see FIG. 8), the animals were sacrificed at 0, 15 and 45 min after initiating the reperfusion.
After the hearts of the animals were removed and freshly frozen in liquid nitrogen, they were sliced into short axis 20 μm slices. Radioactivity in the tissues sections was determined by using a phosphor-imager. Rb-81 was measured over a period of 3 h directly after preparation of the slices, whereas the Tl-201 activity was determined after the Rb-81 activity was almost completed (Rb-81: t1/2=4.58 h versus a 4 day decay period).
Quantitative evaluations were carried out by comparison of the detected counts within regions-of-interest in both, normal tissue areas and occluded tissues areas. Comparisons are given in percent of normal heart tissue.

[3] = Biodistribution of Rb-81 in rats; format: in vivo, female Wistar rats; conditions: mean±SD, n=3
Experimental: 1.85-5.33 MBq (50-144 μCi) Rb-81 in 250 μl isotonic saline was injected into the lateral tail vein of 24 non-fasted female Wistar rats weighing 180-220 g (12 animals at each day).
All the animals were anesthesized with Isofluran (1.5 vol. % and 2.01/min 02) during the injection of the Rb-81 solution. 5 min, 10 min, 20 min, 30 min, 45 min, 1 h, 2 h and 4 h post injection of the Rb-81 solution, the animals were sacrificed by carbon dioxide inhalation (n=3 animals for all time points).
The organs of interest (heart, blood, lungs, liver, stomach, spleen, pancreas, small intestine, colon, kidney, adrenal gland, muscle, bone, brain and tail) were dissected, weighed and measured for activity using a well-type g-counter. Tracer accumulation was normalized to the organ weights. All data are expressed as percent of the injected dose per gram tissue (% ID/g, mean±SD).

[4] = 5 min after application into the tail vein
[5] = 10 min after application into the tail vein
[6] = 20 min after application into the tail vein
[7] = 30 min after application into the tail vein
[8] = 45 min after application into the tail vein
[9] = 60 min after application into the tail vein
[10] = 120 min after application into the tail vein
[11] = 240 min after application into the tail vein

[81Rb] [Rb-81, Rubidium-81]
uptake in the myocardium ([1]; PET summation images, rat): highest shortly after administration
period after re-opening of the occlusion over which filling in of the defect takes place (redistribution) ([1]; PET, rat with temporary coronary artery occlusion): 40 to 50 min
activity in occluded areas, percent of the uptake in normal tissues ([2]; 0 min p.i.): 7%
activity in occluded areas, percent of the uptake in normal tissues ([2]; 15 min p.i.): 37%
activity in occluded areas, percent of the uptake in normal tissues ([2]; 45 min p.i.): 82%
redistribution kinetics ([2]; compared with Tl-201, occluded heart areas after reperfusion): considerably faster
biodistribution, Adrenals [3, 4]: 3.68 ± 0.89 % ID/g
biodistribution, Blood [3, 4]: 0.25 ± 0.07 % ID/g
biodistribution, Bone [3, 4]: 0.48 ± 0.10 % ID/g
biodistribution, Brain [3, 4]: 0.10 ± 0.02 % ID/g
biodistribution, Heart [3, 4]: 4.18 ± 0.18 % ID/g
biodistribution, Kidney [3, 4]: 9.21 ± 0.98 % ID/g
biodistribution, Large Intestine [3, 4]: 1.03 ± 0.82 % ID/g
biodistribution, Liver [3, 4]: 1.25 ± 0.05 % ID/g
biodistribution, Lung [3, 4]: 2.09 ± 0.43 % ID/g
biodistribution, Muscle [3, 4]: 0.18 ± 0.02 % ID/g
biodistribution, Pancreas [3, 4]: 1.81 ± 0.20 % ID/g
biodistribution, Small Intestine [3, 4]: 4.06 ± 0.91 % ID/g
biodistribution, Spleen [3, 4]: 1.45 ± 0.30 % ID/g
biodistribution, Stomach [3, 4]: 0.80 ± 0.41 % ID/g
biodistribution, Adrenals [3, 5]: 3.44 ± 1.07 % ID/g
biodistribution, Blood [3, 5]: 0.22 ± 0.04 % ID/g
biodistribution, Bone [3, 5]: 0.66 ± 0.09 % ID/g
biodistribution, Brain [3, 5]: 0.09 ± 0.03 % ID/g
biodistribution, Heart [3, 5]: 4.30 ± 0.68 % ID/g
biodistribution, Kidney [3, 5]: 6.96 ± 1.39 % ID/g
biodistribution, Large Intestine [3, 5]: 1.22 ± 0.05 % ID/g
biodistribution, Liver [3, 5]: 2.37 ± 0.20 % ID/g
biodistribution, Lung [3, 5]: 1.74 ± 0.18 % ID/g
biodistribution, Muscle [3, 5]: 0.31 ± 0.12 % ID/g
biodistribution, Pancreas [3, 5]: 2.70 ± 0.02 % ID/g
biodistribution, Small Intestine [3, 5]: 3.47 ± 0.33 % ID/g
biodistribution, Spleen [3, 5]: 1.88 ± 0.21 % ID/g
biodistribution, Stomach [3, 5]: 0.63 ± 0.26 % ID/g
biodistribution, Adrenals [3, 6]: 2.92 ± 0.45 % ID/g
biodistribution, Blood [3, 6]: 0.21 ± 0.04 % ID/g
biodistribution, Bone [3, 6]: 0.65 ± 0.15 % ID/g
biodistribution, Brain [3, 6]: 0.11 ± 0.02 % ID/g
biodistribution, Heart [3, 6]: 2.55 ± 0.47 % ID/g
biodistribution, Kidney [3, 6]: 2.90 ± 0.51 % ID/g
biodistribution, Large Intestine [3, 6]: 0.70 ± 0.07 % ID/g
biodistribution, Liver [3, 6]: 2.47 ± 0.64 % ID/g
biodistribution, Lung [3, 6]: 1.62 ± 0.46 % ID/g
biodistribution, Muscle [3, 6]: 0.31 ± 0.02 % ID/g
biodistribution, Pancreas [3, 6]: 2.29 ± 0.73 % ID/g
biodistribution, Small Intestine [3, 6]: 2.73 ± 0.64 % ID/g
biodistribution, Spleen [3, 6]: 1.97 ± 0.47 % ID/g
biodistribution, Stomach [3, 6]: 1.20 ± 0.46 % ID/g
biodistribution, Adrenals [3, 7]: 2.08 ± 0.60 % ID/g
biodistribution, Blood [3, 7]: 0.19 ± 0.03 % ID/g
biodistribution, Bone [3, 7]: 0.63 ± 0.03 % ID/g
biodistribution, Brain [3, 7]: 0.09 ± 0.01 % ID/g
biodistribution, Heart [3, 7]: 2.69 ± 0.32 % ID/g
biodistribution, Kidney [3, 7]: 2.91 ± 0.37 % ID/g
biodistribution, Large Intestine [3, 7]: 0.53 ± 0.14 % ID/g
biodistribution, Liver [3, 7]: 2.60 ± 0.43 % ID/g
biodistribution, Lung [3, 7]: 1.73 ± 0.31 % ID/g
biodistribution, Muscle [3, 7]: 0.36 ± 002 % ID/g
biodistribution, Pancreas [3, 7]: 2.12 ± 0.13 % ID/g
biodistribution, Small Intestine [3, 7]: 2.33 ± 0.72 % ID/g
biodistribution, Spleen [3, 7]: 1.26 ± 0.78 % ID/g
biodistribution, Stomach [3, 7]: 0.88 ± 0.24 % ID/g
biodistribution, Adrenals [3, 8]: 1.32 ± 0.88 % ID/g
biodistribution, Blood [3, 8]: 0.15 ± 0.08 % ID/g
biodistribution, Bone [3, 8]: 0.38 ± 0.18 % ID/g
biodistribution, Brain [3, 8]: 0.07 ± 0.03 % ID/g
biodistribution, Heart [3, 8]: 1.58 ± 0.79 % ID/g
biodistribution, Kidney [3, 8]: 1.56 ± 0.77 % ID/g
biodistribution, Large Intestine [3, 8]: 0.47 ± 0.22 % ID/g
biodistribution, Liver [3, 8]: 1.79 ± 1.07 % ID/g
biodistribution, Lung [3, 8]: 1.02 ± 0.45 % ID/g
biodistribution, Muscle [3, 8]: 0.21 ± 0.06 % ID/g
biodistribution, Pancreas [3, 8]: 1.76 ± 0.91 % ID/g
biodistribution, Small Intestine [3, 8]: 1.45 ± 0.82 % ID/g
biodistribution, Spleen [3, 8]: 1.27 ± 0.57 % ID/g
biodistribution, Stomach [3, 8]: 0.57 ± 0.24 % ID/g
biodistribution, Adrenals [3, 9]: 1.45 ± 0.43 % ID/g
biodistribution, Blood [3, 9]: 0.17 ± 0.01 % ID/g
biodistribution, Bone [3, 9]: 0.54 ± 0.16 % ID/g
biodistribution, Brain [3, 9]: 0.08 ± 0.02 % ID/g
biodistribution, Heart [3, 9]: 1.48 ± 0.41 % ID/g
biodistribution, Kidney [3, 9]: 1.45 ± 0.14 % ID/g
biodistribution, Large Intestine [3, 9]: 0.53 ± 0.20 % ID/g
biodistribution, Liver [3, 9]: 2.25 ± 0.77 % ID/g
biodistribution, Lung [3, 9]: 1.00 ± 0.44 % ID/g
biodistribution, Muscle [3, 9]: 0.35 ± 0.14 % ID/g
biodistribution, Pancreas [3, 9]: 1.99 ± 0.73 % ID/g
biodistribution, Small Intestine [3, 9]: 1.25 ± 0.34 % ID/g
biodistribution, Spleen [3, 9]: 1.43 ± 0.41 % ID/g
biodistribution, Stomach [3, 9]: 0.64 ± 0.31 % ID/g
biodistribution, Adrenals [3, 10]: 0.56 ± 0.22 % ID/g
biodistribution, Blood [3, 10]: 0.10 ± 0.05 % ID/g
biodistribution, Bone [3, 10]: 0.33 ± 0.12 % ID/g
biodistribution, Brain [3, 10]: 0.06 ± 0.03 % ID/g
biodistribution, Heart [3, 10]: 0.67 ± 0.21 % ID/g
biodistribution, Kidney [3, 10]: 0.76 ± 0.27 % ID/g
biodistribution, Large Intestine [3, 10]: 0.36 ± 0.24 % ID/g
biodistribution, Liver [3, 10]: 1.32 ± 0.73 % ID/g
biodistribution, Lung [3, 10]: 0.60 ± 0.23 % ID/g
biodistribution, Muscle [3, 10]: 0.24 ± 0.13 % ID/g
biodistribution, Pancreas [3, 10]: 1.31 ± 0.66 % ID/g
biodistribution, Small Intestine [3, 10]: 0.83 ± 0.37 % ID/g
biodistribution, Spleen [3, 10]: 0.88 ± 0.42 % ID/g
biodistribution, Stomach [3, 10]: 0.34 ± 0.15 % ID/g
biodistribution, Adrenals [3, 11]: 0.75 ± 0.07 % ID/g
biodistribution, Blood [3, 11]: 0.20 ± 0.01 % ID/g
biodistribution, Bone [3, 11]: 0.61 ± 0.04 % ID/g
biodistribution, Brain [3, 11]: 0.13 ± 0.01 % ID/g
biodistribution, Heart [3, 11]: 0.81 ± 0.02 % ID/g
biodistribution, Kidney [3, 11]: 0.90 ± 0.04 % ID/g
biodistribution, Large Intestine [3, 11]: 0.59 ± 0.05 % ID/g
biodistribution, Liver [3, 11]: 1.90 ± 0.03 % ID/g
biodistribution, Lung [3, 11]: 0.79 ± 0.05 % ID/g
biodistribution, Muscle [3, 11]: 0.61 ± 0.11 % ID/g
biodistribution, Pancreas [3, 11]: 1.65 ± 0.20 % ID/g
biodistribution, Small Intestine [3, 11]: 0.89 ± 0.02 % ID/g
biodistribution, Spleen [3, 11]: 1.34 ± 0.06 % ID/g
biodistribution, Stomach [3, 11]: 0.44 ± 0.15 % ID/g

Reference: US20090252673A1, “Methods of Making and Using Rubidium-81-Containing Compositions” (priority 2006, published 2009)
